Source: article PMC10254030, “Photoactivatable Heptamethine-Based Carbonic Anhydrase Inhibitors Leading to New Anti-Antibacterial Agents” (International Journal of Molecular Sciences, 2023)
pKi: −log10 of the molar value. Read-outs that look alike come from different tables or passages of the source.

Experiments:
hCA I = molecular target: T1, hCA I (Homo sapiens, UniProt P00915); assay: stopped-flow CO2 hydrase assay, hCA I; assay type: biochemical; conditions: for pKi: stopped-flow CO2 hydrase assay, pH 7.4, mean from 3 assays
T1 construct: made in house
T1 sequence (P00915 whole entry): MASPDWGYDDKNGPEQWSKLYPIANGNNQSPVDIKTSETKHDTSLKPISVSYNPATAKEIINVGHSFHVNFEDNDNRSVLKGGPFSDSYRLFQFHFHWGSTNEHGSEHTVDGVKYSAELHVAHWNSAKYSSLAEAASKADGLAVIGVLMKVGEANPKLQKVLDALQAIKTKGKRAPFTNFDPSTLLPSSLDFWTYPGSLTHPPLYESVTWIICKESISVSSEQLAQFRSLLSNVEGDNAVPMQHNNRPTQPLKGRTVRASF
Description: (§1) The CA isoforms belong to different classes of CA enzymes characterized by different kinetic and structural features to assess isoform selectivity.
(§2) An Applied Photophysics stopped-flow instrument was used to assay CA-catalyzed CO2 hydration activity. […] The uncatalyzed rates were determined in the same manner and subtracted from the total observed rates. Stock solutions of the inhibitor (0.1 mM) were prepared in distilled–deionized water, and dilutions up to 0.01 nM were done thereafter with the assay buffer. Inhibitor and enzyme solutions were preincubated together for 15 min at room temperature prior to the assay to allow for the formation of the E–I complex. The inhibition constants were obtained by non-linear least-squares methods using PRISM 3 and the Cheng–Prusoff equation as reported earlier and represent the mean from at least three different determinations. All CA isoforms were recombinant proteins obtained in house, as reported earlier.

hCA II = molecular target: T2, hCA II (Homo sapiens, UniProt P00918); assay: stopped-flow CO2 hydrase assay, hCA II; assay type: biochemical; conditions: pH 7.4, mean from 3 assays
T2 construct: made in house
Description: as §1, §2

E. coli β = molecular target: T3, E. coli β (Escherichia coli, UniProt P61517); assay: stopped-flow CO2 hydrase assay, E. coli β; assay type: biochemical; conditions: pH 8.4, mean from 3 assays
T3 construct: made in house
T3 sequence (P61517 whole entry): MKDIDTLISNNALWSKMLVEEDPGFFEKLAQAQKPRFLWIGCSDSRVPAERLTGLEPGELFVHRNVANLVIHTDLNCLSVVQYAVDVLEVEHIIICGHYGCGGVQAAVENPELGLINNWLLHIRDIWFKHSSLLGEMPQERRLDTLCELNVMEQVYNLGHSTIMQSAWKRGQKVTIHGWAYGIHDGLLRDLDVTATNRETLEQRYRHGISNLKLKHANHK
Description: as §1
An Applied Photophysics stopped-flow instrument was used to assay CA-catalyzed CO2 hydration activity. Phenol red (at a concentration of 0.2 mM) was used as an indicator, working at the absorbance maximum of 557 nm, with 20 mM Hepes (pH 7.4 for α-class and pH 8.4 for β- and γ-classes) as a buffer and 20 mM Na2SO4 (to maintain constant the ionic strength), following the initial rates of the CA-catalyzed CO2 hydration reaction for a period of 10–100 s. The CO2 concentrations ranged from 1.7 to 17 mM for the determination of the kinetic parameters and inhibition constants. Enzyme concentrations ranged between 5 and 12 nM. For each inhibitor, at least six traces of the initial 5–10% of the reaction were used to determine the initial velocity. The uncatalyzed rates were determined in the same manner and subtracted from the total observed rates. Stock solutions of the inhibitor (0.1 mM) were prepared in distilled–deionized water, and dilutions up to 0.01 nM were done thereafter with the assay buffer. Inhibitor and enzyme solutions were preincubated together for 15 min at room temperature prior to the assay to allow for the formation of the E–I complex. The inhibition constants were obtained by non-linear least-squares methods using PRISM 3 and the Cheng–Prusoff equation as reported earlier and represent the mean from at least three different determinations. All CA isoforms were recombinant proteins obtained in house, as reported earlier.

E. coli γ = E. coli γ (Escherichia coli, UniProt P0A9W9); assay type: biochemical; conditions: stopped-flow CO2 hydrase assay, pH 8.4, mean from 3 assays
E. coli γ, sequence (P0A9W9 whole entry): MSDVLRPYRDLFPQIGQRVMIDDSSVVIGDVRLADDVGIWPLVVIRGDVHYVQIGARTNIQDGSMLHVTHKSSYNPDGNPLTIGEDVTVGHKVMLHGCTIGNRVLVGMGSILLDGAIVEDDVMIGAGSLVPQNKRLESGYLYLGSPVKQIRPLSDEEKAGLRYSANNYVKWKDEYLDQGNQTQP
Description: as §1, §2

PsCA1 = PsCA1 (Pseudomonas aeruginosa, UniProt Q9I730); assay: biochemical; conditions: stopped-flow CO2 hydrase assay, mean from 3 assays
PsCA1, sequence (Q9I730 entry or part of it): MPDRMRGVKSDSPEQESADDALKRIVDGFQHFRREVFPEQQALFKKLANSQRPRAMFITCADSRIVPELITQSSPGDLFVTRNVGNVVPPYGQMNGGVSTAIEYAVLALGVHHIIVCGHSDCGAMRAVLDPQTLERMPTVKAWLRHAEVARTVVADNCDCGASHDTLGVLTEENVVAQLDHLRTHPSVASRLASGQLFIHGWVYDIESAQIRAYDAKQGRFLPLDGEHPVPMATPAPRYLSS
Description: as §1, §2

PsCA3 = molecular target: T4, PsCA3 (Pseudomonas aeruginosa, UniProt Q9HVB9); assay: biochemical; conditions: stopped-flow CO2 hydrase assay, mean from 3 assays
T4 construct: made in house
T4 sequence (Q9HVB9 1-215): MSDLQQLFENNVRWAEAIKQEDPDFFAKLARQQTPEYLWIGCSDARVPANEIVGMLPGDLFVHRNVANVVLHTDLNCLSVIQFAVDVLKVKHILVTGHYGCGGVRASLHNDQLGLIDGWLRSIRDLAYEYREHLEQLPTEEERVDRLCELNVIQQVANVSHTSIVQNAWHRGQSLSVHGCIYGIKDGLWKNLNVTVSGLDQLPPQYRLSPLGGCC
Description: as §1, §2

E. faecalis = assay: MIC and MBC test (NF EN ISO 20776-1), E. faecalis; assay type: cell-based, Enterococcus faecalis; conditions: for MIC: Enterococcus faecalis; for MBC E. faecalis: bacteriostatic or bactericidal effect, tested up to 8 × MIC
Description: (§3) Derivatives 2a–f were dissolved in DMSO and further diluted with distilled water to the required final concentration. The microorganisms (E. faecalis, S. aureus, and S. epidermidis reported in Table 4) were cultured overnight at 35 °C in Mueller Hinton Broth 2, Cation-Adjusted (BD, BD 212322, New York, NY, USA) and adjusted to 0.5 McFarland, according to standardized guidelines NF EN ISO 20776-1 [23]. The minimal inhibitory concentration (MIC) test was performed according to the standardized guidelines NF EN ISO 20776-1 [23]. Once the MIC was obtained, the minimal bactericidal concentration (MBC) test was performed.

S. aureus = assay: MIC and MBC test (NF EN ISO 20776-1), S. aureus; assay type: cell-based, Staphylococcus aureus; conditions: for MIC: Staphylococcus aureus, ATCC29213, light or radiation study; for MBC S. aureus: bacteriostatic or bactericidal effect, tested up to 8 × MIC
Description: as §3

S. epidermidis [1] = assay: MIC and MBC test (NF EN ISO 20776-1), S. epidermidis; assay type: cell-based, Staphylococcus epidermidis; conditions: for MIC: Staphylococcus epidermidis, ATCC14990, light or radiation study
Description: as §3

S. epidermidis [2] = assay: photoactivity assay, irradiation with 652 nm laser; assay type: cell-based, Staphylococcus epidermidis; conditions: 652 nm laser 47 min, 30 J/cm2, 2c and 2d at 64 μg/mL, others at MIC
Description: Upon incubation of 1.5–2 h with the products, the samples were irradiated for 47 min with a 652 nm laser (to obtain 1.70 W, 30 J/cm^2). Upon irradiation, the cells were plated and incubated overnight at 35 °C on Mueller Hinton Agar (BD, 225250, New York, NY, USA).

MRC-5 cells = assay: cytotoxicity, MTT assay; assay type: cell-based, human; conditions: for IC50: MRC5, cytotoxicity, human lung fibroblasts, 24 h, MTT
Description: The cytotoxicity of the products was tested on MRC-5 cells (lung fibroblasts, ATCC CCL-171) with a seeding concentration of 10,000 cells/well. The products were diluted with a 2% FSC MEM medium (Sigma, M4655, Missouri, MO, USA) to concentrations ranging from 1 to 256 μg/mL and incubated with 80% confluent cells for 24 h. The following day, a 3-[4,5-dimethylthiazol-2-yl]-2,5-diphenyl tetrazolium bromide (MTT) assay was performed, and the optical density of the samples was measured at 540 nm.

human red blood cells = assay: hemolysis assay; assay type: cell-based; conditions: 30 min 37 °C; for hemolysis activity, cytotoxicity to human red blood cells: 0.5–150 µg/mL, compared with 0.01% Tween 20
Description: Blood collected at CHU Nancy was washed three times with PBS, and 10^7 cells/mL were incubated for 30 min at 37 °C with the newly synthesized compounds. The derivatives were previously diluted to the range from 0.5 to 75/150 μg/mL with PBS. As a positive control, cells were resuspended with 0.01% polysorbate 20 (Tween 20). Tween 20 has often been used as a reference compound for cell lysis. Upon incubation, the samples were centrifuged for 5 min at 800× g, and the supernatant was collected for optical density reading at 540 nm.

[3] = light or radiation study, clinical isolate, without irradiation, read-out: MIC E. faecalis
[4] = span over the four compounds and both strains, read-out: MIC against the E. faecalis and S. aureus strains
[5] = ATCC 29213, without irradiation
[6] = ATCC 14990, without irradiation
[7] = bacteriostatic or bactericidal effect, tested up to 8 × MIC

| SMILES | pKi (hCA I) | pKi (hCA II) | pKi (E. coli β) | pKi (E. coli γ) | pKi (PsCA1) | pKi (PsCA3) | MIC (E. faecalis; [3]) | MIC (E. faecalis; [4]) | MBC E. faecalis (E. faecalis) | MIC (S. aureus; [5]) | MBC S. aureus (S. aureus) | MIC (S. epidermidis [1]; [6]) | MBC S. epidermidis (S. epidermidis [1]; Table 3) | MBC S. epidermidis (S. epidermidis [1]; [7]) | Growth Reduction (S. epidermidis [2]) | IC50 (MRC-5 cells) | hemolysis activity, cytotoxicity to human red blood cells (human red blood cells) | also measured |
| --- | --- | --- | --- | --- | --- | --- | --- | --- | --- | --- | --- | --- | --- | --- | --- | --- | --- | --- |
| CCCN1C(=CC=C2CCCC(C=CC3=[N+](CCC)c4ccccc4C3(C)C)=C2NCCc2ccc(S(N)(=O)=O)cc2)C(C)(C)c2ccccc21 [Compound 2a] | 6.39 | 6.79 | 7.26 | 6.92 | 7.22 | 7.05 | 16 to 64 µg/mL | 8 to 128 µg/mL | bactericidal | 8 to 32 µg/mL | bacteriostatic | 4 to 16 µg/mL | bactericidal | bactericidal | 1 log reduction | 38.5 µg/mL | not cytotoxic | fold less toxic than 2e (MRC-5 cells; MRC-5 IC50 compared with 2e): 19 fold |
| CCCN1C(=CC=C2CCCC(C=CC3=[N+](CCC)c4ccccc4C3(C)C)=C2NCCNC(=O)Nc2ccc(S(N)(=O)=O)cc2)C(C)(C)c2ccccc21 [Compound 2b] | 6.02 | 6.23 | 7.16 | 7.03 | 7.33 | 7.32 | 16 to 64 µg/mL | 8 to 128 µg/mL | bacteriostatic | 8 to 32 µg/mL | bacteriostatic | 4 to 16 µg/mL | bacteriostatic | bacteriostatic | 2 log reduction | 82.2 µg/mL | significant cytotoxicity | selectivity for all assayed bacterial isoforms (hCA I; bacterial CA isoforms versus the human off-target hCA I and II): ~10 fold; concentration above which cytotoxic to human red blood cells (human red blood cells; hemolysis assay): > 75 µg/mL |
| CC1(C)C(/C=C/C2=C(NCCc3ccc(S(N)(=O)=O)cc3)C(=C/C=C3\N(CCCCS(=O)(=O)O)c4ccc5ccccc5c4C3(C)C)/CCC2)=[N+](CCCCS(=O)(=O)[O-])c2ccc3ccccc3c21 [Compound 2c] | 6.28 | 7.04 | 7.22 | 6.93 | 7.19 | 7.11 | > 256 µg/mL | – | > 256 µg/mL | > 256 µg/mL | > 256 µg/mL | > 256 µg/mL | > 256 µg/mL | > 256 µg/mL | 1 log reduction | > 256 µg/mL | significant cytotoxicity | MIC E. faecalis (E. faecalis; clinical isolate, without irradiation): over 256 µg/mL; MIC S. aureus (S. aureus; [5]): over 256 µg/mL; MIC S. epidermidis (S. epidermidis [1]; [6]): over 256 µg/mL |
